Earlier results on four molecules are cited in patent US20230010484A1, “METHOD FOR THE DECOLORIZATION OF KERATIN MATERIAL THAT HAS BEEN DYED USING A PIGMENT” (Henkel AG & Co. KGaA, priority 2019, published 2023).

For the data set the following is noted: 25° C.

Consider `O=C([O-])c1c(Cl)c(Cl)c(Cl)c(Cl)c1-c1c2c(Br)cc(=O)c(Br)c-2oc2c(Br)c(O)cc(Br)c12.O=C([O-])c1c(Cl)c(Cl)c(Cl)c(Cl)c1-c1c2c(Br)cc(=O)c(Br)c-2oc2c(Br)c(O)cc(Br)c12.[Na+].[Na+]` [Acid Red 92, disodium salt of 3,4,5,6-tetrachloro-2-(1,4,5,8-tetrabromo-6-hydroxy-3-oxoxanthen-9-yl)benzoic acid], for which the solubility in water entry was “greater than 10 g/L”.
For `O=S(=O)([O-])c1ccc(N=Nc2c(O)ccc3ccccc23)cc1.[Na+]` [Acid Orange 7, sodium salt of 4-[(2-hydroxy-1-naphthyl)azo]benzene sulphonate], the solubility in water entry is on record as “more than 7 g/L”.
Regarding `Nc1cc(S(=O)(=O)[O-])cc2cc(S(=O)(=O)[O-])c(N=Nc3ccccc3)c(O)c12.[Na+].[Na+]` [Acid Red 33, dinatrium salt of 5-amino-4-hydroxy-3-(phenylazo)-naphthalene-2,7-disulphonate], the solubility in water result is listed as “about 2.5 g/L”.
Consider `O=C([O-])C1=NN(c2ccc(S(=O)(=O)[O-])cc2)C(=O)C1N=Nc1ccc(S(=O)(=O)[O-])cc1.[Na+].[Na+].[Na+]` (stereo not shown) [Acid Yellow 23, trisodium salt of 4,5-dihydro-5-oxo-1-(4-sulfophenyl)-4-((4-sulfophenyl)azo)-1H-pyrazole-3-carboxylic acid], for which the “solubility in water (in words)” value is given as “highly soluble”.
